Experimental data from patent US6451850B1, “Bio-chemical germanium complexes with high therapeutic efficiency and wide application spectrum” (priority 2001, dated 2002).
Like-named read-outs stand apart in the source and are kept apart here.

Description: Water solutions or suspensions of the complexes under investigation have been injected intraperitoneally 30÷60 min. before beginning of the experiment. Animals from the control group got equal amounts of physiological salt solution. High altitude hypoxia was made in special air tight chambers, in which a lift of the animals up to the altitude 10,000 m has been imitated by pumping out of air. A criterion of validity for the complexes was increase of mice life length and survivability of these.
Interferon inducing activity of the complexes has been studied with various methods, including the study with native leukocytes of human donor blood.
Antiinflammatory effect has been studied for animals according to the method by Ju. Strel'nikov. Experiments have been carried out with white mice of mass 20 g. Aseptic inflammation was caused by injection of 0.1 ml of 2.5% formalin solution into thigh thickness of an animal's paw. A compound under investigation was injected into the stomach in the dose equimolecular to 20 mg/kg of indometacin two hours before the injection of formalin. Distinction of the edema was estimated by increase of a mass of inflamed and uninflammed paws in experimental groups of animals compared to control ones. […] Simultaneously antiinflammatory activity of indometacin was studied for comparison.

| SMILES | Expansion of Effect Spectrum for the Complex Medicament (Table 5) | Expansion of Effect Spectrum for the Complex Medicament (Table 4) |
| --- | --- | --- |
| CN(C)CCCN1c2ccccc2Sc2ccc(Cl)cc21.O=C1CN2CC[O][Ge]([C]34CC5CC(CC(C5)C3)C4)([O]1)[O]C(=O)C2 | - . - | – |
| CN(C)CCC=C1c2ccccc2Sc2ccc(Cl)cc21.C[CH2][Ge]12[O]CCN(CC(=O)[O]1)CC(=O)[O]2 | - . - | – |
| O=C1CN2CC[O][Ge]([C]34CC5CC(CC(C5)C3)C4)([O]1)[O]C(=O)C2.O=C1NC(=O)C(c2ccccc2)(c2ccccc2)N1 | - . - | – |
| CCC1(c2ccccc2)C(=O)NCNC1=O.O=C1CN2CC[O][Ge]([C]34CC5CC(CC(C5)C3)C4)([O]1)[O]C(=O)C2 | - . - | – |
| N[C@@H](Cc1ccc(O)c(O)c1)C(=O)O.O=C1CN2CC[O][Ge]([C]34CC5CC(CC(C5)C3)C4)([O]1)[O]C(=O)C2 | - . - | – |
| CN1CCN(CCCN2c3ccccc3Sc3ccc(Cl)cc32)CC1.[CH3][Ge]12[O]CCN(CC(=O)[O]1)CC(=O)[O]2 | - . - | – |
| NC12CC3CC(CC(C3)C1)C2.[CH3][Ge]12[O]CCN(CC(=O)[O]1)CC(=O)[O]2 | – | - . - |
| O=C1CN=C(c2ccccc2Cl)c2cc(Br)ccc2N1.[CH3][Ge]12[O]C(=O)CN(CC(=O)[O]1)CC(=O)[O]2 | - . - | – |
| O=C1CN2CC[O][Ge]([C]34CC5CC(CC(C5)C3)C4)([O]CC2)[O]1.O=C1CN=C(c2ccccc2Cl)c2cc(Br)ccc2N1 | - . - | – |
| CCC1(c2ccccc2)C(=O)NC(=O)NC1=O.O=C1CN2CC[O][Ge]([C]34CC5CC(CC(C5)C3)C4)([O]1)[O]C(=O)C2 | - . - | – |
| Cc1cn([C@H]2C[C@H](N=[N+]=[N-])[C@@H](CO)O2)c(=O)[nH]c1=O.[CH3][Ge]12[O]CCN(CC(=O)[O]1)CC(=O)[O]2 | – | - . - |
| CN(C)CCCN1c2ccccc2Sc2ccc(Cl)cc21.[OH][Ge]12[O]CCN(CC[O]1)CC[O]2 [Aminazinum OGC (R = OH)] | - . - | – |
| CN(C)CCCN1c2ccccc2Sc2ccc(Cl)cc21.[SH][Ge]12[O]CCN(CC[O]1)CC[O]2 [Aminazinum OGC (R = SH)] | - . - | – |
| CN(C)CCC=C1c2ccccc2Sc2ccc(Cl)cc21.[OH][Ge]12[O]CCN(CC[O]1)CC[O]2 [Chlorprotexenum OGC (R = OH)] | - . - | – |
| CN(C)CCC=C1c2ccccc2Sc2ccc(Cl)cc21.[SH][Ge]12[O]CCN(CC[O]1)CC[O]2 [Chlorprotexenum OGC (R = SH)] | - . - | – |
| CN1C(=O)CN=C(c2ccccc2)c2cc(Cl)ccc21.[OH][Ge]12[O]CCN(CC[O]1)CC[O]2 [Diazepam OGC (R = OH)] | - . - | – |
| CN1C(=O)CN=C(c2ccccc2)c2cc(Cl)ccc21.[SH][Ge]12[O]CCN(CC[O]1)CC[O]2 [Diazepam OGC (R = SH)] | - . - | – |
| [CH3][Ge]12[O]CCN(CC(=O)[O]1)CC(=O)[O]2.c1ccc(Cc2nc3ccccc3[nH]2)cc1 [Dibasolum OGC (R = CH3, R1R2 = R5R6 = O)] | – | - . - |
| [OH][Ge]12[O]CCN(CC[O]1)CC[O]2.c1ccc(Cc2nc3ccccc3[nH]2)cc1 [Dibasolum OGC (R = OH)] | – | - . - |
| [SH][Ge]12[O]CCN(CC[O]1)CC[O]2.c1ccc(Cc2nc3ccccc3[nH]2)cc1 [Dibasolum OGC (R = SH)] | – | - . - |
| O=C1NC(=O)C(c2ccccc2)(c2ccccc2)N1.[OH][Ge]12[O]CCN(CC[O]1)CC[O]2 [Dipheninum OGC (R = OH)] | - . - | – |
| CCC1(c2ccccc2)C(=O)NCNC1=O.[OH][Ge]12[O]CCN(CC[O]1)CC[O]2 [Hexamidinum OGC (R = OH)] | - . - | – |
| C[CH2][Ge]12[O]CCN(CC[O]1)CC(=O)[O]2.O=c1[nH]c(=O)n([C@H]2C[C@H](O)[C@@H](CO)O2)cc1I [Idoxuridine OGC (R = C2H5, R1,R2 = O)] | – | - . - |
| O=c1[nH]c(=O)n(C2CC(O)C(CO)O2)cc1I.[OH][Ge]12[O]CCN(CC[O]1)CC[O]2 (stereo not shown) [Idoxuridine OGC (R = OH)] | – | - . - |

| SMILES | Expansion of Effect Spectrum for the Complex Medicament (Table 5) | Expansion of Effect Spectrum for the Complex Medicament (Table 4) |
| --- | --- | --- |
| O=c1[nH]c(=O)n([C@H]2C[C@H](O)[C@@H](CO)O2)cc1I.[SH][Ge]12[O]CCN(CC[O]1)CC[O]2 [Idoxuridine OGC (R = SH)] | – | - . - |
| N[C@@H](Cc1ccc(O)c(O)c1)C(=O)O.[OH][Ge]12[O]CCN(CC[O]1)CC[O]2 [Levodopa OGC (R = OH)] | - . - | – |
| CN1CCN(CCCN2c3ccccc3Sc3ccc(Cl)cc32)CC1.[OH][Ge]12[O]CCN(CC[O]1)CC[O]2 [Meterazinum OGC (R = OH)] | - . - | – |
| CN1CCN(CCCN2c3ccccc3Sc3ccc(Cl)cc32)CC1.[SH][Ge]12[O]CCN(CC[O]1)CC[O]2 [Meterazinum OGC (R = SH)] | - . - | – |
| CN1CCN=C(c2ccccc2)c2cc(Cl)ccc21.[CH3][Ge]12[O]CCN(CC(=O)[O]1)CC(=O)[O]2 [Mezapamun OGC (R = CH3) R1R2 = R5R6 = O)] | - . - | – |
| CN1CCN=C(c2ccccc2)c2cc(Cl)ccc21.[CH3][Ge]([CH3])([CH3])[O][Ge]12[O]CCN(CC[O]1)CC[O]2 [Mezapamun OGC (R = OGeMe3)] | - . - | – |
| CN1CCN=C(c2ccccc2)c2cc(Cl)ccc21.[OH][Ge]12[O]CCN(CC[O]1)CC[O]2 [Mezapamun OGC (R = OH)] | - . - | – |
| CN1CCN=C(c2ccccc2)c2cc(Cl)ccc21.C[Si](C)(C)[O][Ge]12[O]CCN(CC[O]1)CC[O]2 [Mezapamun OGC (R = OSiMe3)] | - . - | – |
| CN1CCN=C(c2ccccc2)c2cc(Cl)ccc21.O=C1CN2CC[O][Ge]([C]34CC5CC(CC(C5)C3)C4)([O]CC2)[O]1 [Mezapamun OGC (R = adamantyl, R1R2 = O)] | - . - | – |
| NC12CC3CC(CC(C3)C1)C2.[OH][Ge]12[O]CCN(CC[O]1)CC[O]2 [Midantanum OGC (R = OH)] | - . - | - . - |
| NC12CC3CC(CC(C3)C1)C2.[SH][Ge]12[O]CCN(CC[O]1)CC[O]2 [Midantanum OGC (R = SH)] | - . - | - . - |
| O=C1CN=C(c2ccccc2Cl)c2cc(Br)ccc2N1.[OH][Ge]12[O]CCN(CC[O]1)CC[O]2 [Phenazepamum OGC (R = OH)] | - . - | – |
| CCC1(c2ccccc2)C(=O)NC(=O)NC1=O.[SH][Ge]12[O]CCN(CC[O]1)CC[O]2 [Phenobarbitalum OGC(R = SH)] | - . - | – |
| CC(N)C12CC3CC(CC(C3)C1)C2.O=C1CN2CC[O][Ge]([OH])([O]CC2)[O]1 (stereo not shown) [Remantadinum OGC (R = OH, R1R2 = O)] | – | - . - |
| CC(N)C12CC3CC(CC(C3)C1)C2.[SH][Ge]12[O]CCN(CC[O]1)CC[O]2 (stereo not shown) [Remantadinum OGC (R = SH)] | – | - . - |
| Nc1ncnc2c1ncn2C1OC(CO)C(O)C1O.O=C1CN2CC[O][Ge]([OH])([O]CC2)[O]1 (stereo not shown) [Vidarabinum OGC (R = OH, R1,R2 = O)] | – | - . - |
| Nc1ncnc2c1ncn2C1OC(CO)C(O)C1O.[OH][Ge]12[O]CCN(CC[O]1)CC[O]2 (stereo not shown) [Vidarabinum OGC(R = OH)] | – | - . - |
| CC1CN2CC[O][Ge]([OH])([O]CC2)[O]1.Nc1ncnc2c1ncn2C1OC(CO)C(O)C1O (stereo not shown) [Vidarabinum OGC(R = OH, R1 = CH3)] | – | - . - |
| C[CH2][Ge]12[O]CCN(CC[O]1)CC(=O)[O]2.Nc1nc2c(ncn2COCCO)c(=O)[nH]1 [Virolex OGC (R = C2H5, R1, R2 = O)] | – | - . - |
| Cc1cn([C@H]2C[C@H](N=[N+]=[N-])[C@@H](CO)O2)c(=O)[nH]c1=O.[CH3][Ge]([CH3])([CH3])[O][Ge]12[O]CCN(CC[O]1)CC[O]2 [Zidovudine OGC (R = OGeMe3)] | – | - . - |
| Cc1cn([C@H]2C[C@H](N=[N+]=[N-])[C@@H](CO)O2)c(=O)[nH]c1=O.[OH][Ge]12[O]CCN(CC[O]1)CC[O]2 [Zidovudine OGC (R = OH)] | – | - . - |
| C[Si](C)(C)[O][Ge]12[O]CCN(CC[O]1)CC[O]2.Cc1cn([C@H]2C[C@H](N=[N+]=[N-])[C@@H](CO)O2)c(=O)[nH]c1=O [Zidovudine OGC (R = OSiMe3)] | – | - . - |
| Cc1cn([C@H]2C[C@H](N=[N+]=[N-])[C@@H](CO)O2)c(=O)[nH]c1=O.[SH][Ge]12[O]CCN(CC[O]1)CC[O]2 [Zidovudine OGC (R = SH)] | – | - . - |
